In one experiment the test system is asthma model. Conditions: guinea pig; cited from earlier work.
Another experiment deals with allergic rhinitis model. Conditions: oral administration, guinea pig; cited from earlier work.
A further experiment deals with T1, Prostanoid DP1 receptor (Homo sapiens, UniProt Q13258).
T1 construct: expressed in transfected cells; host or cells: CHO K1
T1 sequence (Q13258 1-359): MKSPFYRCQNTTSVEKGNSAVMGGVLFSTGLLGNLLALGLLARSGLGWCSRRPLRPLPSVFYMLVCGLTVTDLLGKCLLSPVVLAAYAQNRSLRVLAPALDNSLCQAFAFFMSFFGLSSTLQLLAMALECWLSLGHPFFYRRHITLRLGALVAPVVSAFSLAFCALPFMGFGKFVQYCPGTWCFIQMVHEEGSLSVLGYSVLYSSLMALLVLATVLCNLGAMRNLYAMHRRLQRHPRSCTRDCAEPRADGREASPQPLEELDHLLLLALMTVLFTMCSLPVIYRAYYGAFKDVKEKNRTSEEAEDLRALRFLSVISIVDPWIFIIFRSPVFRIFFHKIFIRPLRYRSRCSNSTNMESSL
The experiment in a line: Measurement of cAMP using TR-FRET LANCE assay: Prostanoid DP1. It counts as cell-based. Conditions: CHO cells expressing DP1 receptor, antagonism of PGD2 (EC80) cAMP response; read-out: pKi value (converted). As for the experimental part:
CHO K1 cells, stably expressing the Prostanoid DP1 receptor, were maintained in culture in DMEM/F12, supplemented with 5% FBS, 2 mM L-glutamine, 400 μg/mL hygromycin B in 95%: 5% air: CO2 at 37° C. Following harvest from culture, cells were centrifuged at 250 g at 4° C. for 10 minutes and re-suspended in ice cold dialysed FCS. Once the cells were in mono-suspension they were slowly mixed with an equal volume of ice cold 80% dialysed FCS: 20% DMSO (pre-mixed and chilled several hours earlier). The cells were then aliquoted into 1 mL tubes within a 96 well block (pre-cooled to 4° C.). Once sealed, the tubes were frozen in a controlled rate freezer. The frozen cells were then transferred to a −140° C. freezer for long term storage.
Measurement of cAMP Using TR-FRET LANCE™ Assays: Prostanoid DP1
The potency of the compounds were determined using a LANCE™ cAMP assay kit as per the kit instructions. Briefly, CHO cells expressing DP1 receptor were thawed at 37° C., diluted in PBS and centrifuged at 1000 RPM for 5 minutes. Cells were then re-suspended (2 million cells/mL) in stimulation buffer (HBSS containing 0.01% BSA, 500 μM FAC IBMX, 5 mmol/L HEPES adjusted to pH 7.4 with KOH.
Briefly, cells were added (10,000 cells/well at 5 μL addition) to low volume white Greiner polypropylene 384-well plate assay plates containing 0.1 μl test compound. Following a 15 minute incubation at room temperature, 5 μl of antibody solution (stimulation buffer containing Alexia fluor 647) containing PGD2 at twice the determined EC80 concentration was added. Plates were incubated for a further 30 minutes at room temperature then detection mixture was added (kit components; detection buffer, europiumW8044-labelled streptavidin and biotin cAMP at 10 μl/well). Plates were covered and incubated the room temperature for 1 hour before reading on a Viewlux Microplate Imager using TR-FRET label settings.
All compounds were dissolved in DMSO at a concentration of 10 mM and were prepared in 100% DMSO using a 1 in 4 dilution step to provide 11-point concentration—response curves. The dilutions were transferred to the assay plates ensuring that the DMSO concentration was constant across the plate at 1% for all assays.
All data were normalised to the mean of 16 high and 16 low control wells on each plate. A four parameter curve fit of the following form was then applied.
Where a is the minimum, b is the Hill slope, c is the XC50, and d is the maximum. Data are presented as the mean pXC50 (negative log 10 of the molar XC50) with the standard deviation (SD) of number of tests in the experiments.
A general note: In TR-FRET formats the signal depends on donor and acceptor labels being close together.

Structures can show the parent of a compound that is named as a salt.

For `CC1(C)[C@H]2C[C@H](C/C=C\CCCC(=O)O)[C@@H](NC(=O)c3csc4ccc(O)cc34)[C@@H]1C2` [Example S-5751], in the experiment on asthma model, the “antigen-induced eosinophil infiltration into the lung” value is recorded as “alleviated”. For the same molecule, the “early and late nasal responses” value with allergic rhinitis model was “inhibited”.
Consider `CC(C)c1nc2c(n1Cc1ccc(Cl)cc1)C(OCC(=O)O)CCCC2` (centres unmarked) [Example 2], for which the Ki on Prostanoid DP1 receptor is no more than 100 nM.
With `O=C(O)CC1CCCc2nc(C3CCCC3)n(Cc3ccc(Cl)cc3)c21` (centres unmarked) [Example 22, {1-[(4-chlorophenyl)methyl]-2-cyclopentyl-4,5,6,7-tetrahydro-1H-benzimidazol-7-yl}acetic acid ammonia salt], the Ki on Prostanoid DP1 receptor was no more than 100 nM.
With `CC(C)c1nc2c(n1Cc1ccc(Cl)cc1)C(CC(=O)O)CCC2` (centres unmarked) [Example 27, [1-[(4-chlorophenyl)methyl]-2-(1-methylethyl)-4,5,6,7-tetrahydro-1H-benzimidazol-7-yl]acetic acid ammonia salt], the Ki on Prostanoid DP1 receptor was no more than 100 nM.
Still for that read-out and setting: then `CC(C)c1nc2c(n1Cc1ccc(Cl)c(Cl)c1)C(CC(=O)O)CCC2` (centres unmarked) [Example 19, [1-[(3,4-dichlorophenyl)methyl]-2-(1-methylethyl)-4,5,6,7-tetrahydro-1H-benzimidazol-7-yl]acetic acid], with no more than 10 nM; and `CC(C)c1nc2c(n1Cc1ccc(Cl)c(Cl)c1)C(CC(=O)O)CCC2` (centres unmarked) [Example 29, [1-[(3,4-dichlorophenyl)methyl]-2-(1-methylethyl)-4,5,6,7-tetrahydro-1H-benzimidazol-7-yl]acetic acid trifluoroacetic acid salt], with no more than 10 nM; and `CC(C)c1nc2c(n1Cc1ccc(Cl)c(Cl)c1)C(OCC(=O)O)CCCC2` (centres unmarked) [Example 34, {[3-[(3,4-dichlorophenyl)methyl]-2-(1-methylethyl)-3,4,5,6,7,8-hexahydrocyclohepta[d]imidazol-4-yl]oxy}acetic acid ammonia salt], with no more than 10 nM.
